Measured values from patent US20160264616A1, “THERAPEUTIC COMPOUNDS AND METHODS” (priority 2015, published 2016).
Entries after “also recorded” stand apart in the source; their conditions may differ. Read-outs that look alike come from different tables or passages of the source.

How the values were obtained:
RGS17 [1] = biological target: T1, RGS17 (Homo sapiens, UniProt Q9UGC6); assay: MALDI-TOF mass spectrometry for covalent adducts; conditions: two-fold molar excess of compound, one hour
T1 construct: This is the same RGS17 construct used in the high throughput screening campaign that is fully active despite the N-terminal truncation; made in house
T1 sequence (Q9UGC6 84-200 limits assumed): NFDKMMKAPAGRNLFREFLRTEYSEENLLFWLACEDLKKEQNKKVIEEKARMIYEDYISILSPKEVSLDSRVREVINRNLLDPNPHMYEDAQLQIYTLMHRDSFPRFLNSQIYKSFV
Procedure: Matrix-assisted laser desorption ionization time of flight (MALDI-TOF) mass spectrometry was employed to evaluate if lead compounds were capable of covalently modifying RGS17's RGS homology domain. Covalent adducts on RGS17 were not detected with any compounds using two-fold molar excess of compound when incubated for one hour with RGS17ΔN (FIG. 8). For all samples, the only species that were observed were singly and doubly charged unmodified, intact protein with mass-to-charge ratios of […], respectively.
Following treatment with compound, buffer was exchanged for 25 mM ammonium bicarbonate using an Amicon Ultra 10K 0.5 mL centrifugal filtration device (Millipore, Billerica, Mass.). Intact protein molecular weight was then assessed by matrix-assisted laser desorption/ionization-time of flight (MALDI-TOF) mass spectrometry. This was accomplished using a Bruker ultrafleXtreme in the linear TOF mode, employing 384-well Anchor chip targets (Billerica, Mass.). MALDI matrix reagents sinapinic acid and alpha-Cyano-4-hydroxycinnamic acid, purchased from Bruker, were reconstituted to 5 mg/ml in a 1:1 solution of acetonitrile and aqueous 0.1% formic acid (Billerica, Mass.). Samples in ammonium bicarbonate were diluted to 5 μM in aqueous 0.1% formic acid and introduced to target as a 1:1 solution of protein sample to MALDI matrix buffer. After crystal drying, samples were desalted on the target plate using aqueous 0.1% TFA. The laser was configured to emit pulses at 200 Hz at an optimal wavelength of 355 nm, and input energy of 500 μJ/pulse was attenuated 80-90%. Mass scale was calibrated using horse heart myoglobin, and 2000 shots were acquired per spectra.

[2] = biological target: T2, RGS17:Gαo protein:protein interaction (Homo sapiens, UniProt Q9UGC6); assay: Compound reversibility, washed/unwashed AlphaScreen; type: binding; conditions: RGS17 incubated with 100 μM, washed three times
T2 construct: This is the same RGS17 construct used in the high throughput screening campaign that is fully active despite the N-terminal truncation; made in house; host or cells: BL21 (DE3) E. coli for Gαo
T2 sequence (Q9UGC6 84-200 limits assumed): T1 sequence (Q9UGC6 84-200 limits assumed)
Procedure: To determine the reversibility of compound inhibition of the RGS17:Gαo protein:protein interaction, RGS17 was treated with 100 μM compound. This concentration was determined through the earlier dose-response experiments to inhibit the AlphaScreen assay >25% for each of the compounds (UI-5, UI-1590, UI-1907 and UI-1956). Upon completion of incubation with compounds, each sample was washed three times with ASB buffer. This method will promote dissociation of any compounds that are non-covalent where as any covalent modifiers would result in persistent protein:protein interaction inhibition.
First, stock solutions of all four compounds were made at a 3× concentration or 300 μM for a final concentration of 100 μM. The final DMSO concentration in the assay was 1%. Next, RGS17 and Gαo were diluted into 300 μL of assay buffer (AlphaScreen Buffer: ASB) (50 mM HEPES, 100 mM NaCl, 0.1% Lubrol, 1% bovine serum albumin [BSA], pH 8.0) at a 3× concentration of 30 nM. Next, 7.2 μL of AlphaScreen beads were added to each separate protein. The protein and bead solution was incubated on ice for 30 mins in the dark. Upon completion of protein:bead conjugation, 600 μL of ASB was added to RGS17. To the Gαo sample, 279 μL of AMF (final concentration of 10 μM NaF, […], 10 nM AlCl3, and 5 μM GDP) and 321 μL of ASB were added. The RGS17 sample was split into 90 μL tubes and 90 μL of each compound or DMSO vehicle was added to the RGS17:bead mixture and incubated for 15 mins. Upon completion of compound incubation, the RGS17:bead mixture was washed 3 times with 1.8 mL of ASB. The RGS17 protein:bead samples were pelleted after each wash through centrifugation at 15, 000×g for 10 mins. After the final wash step, the RGS17 protein:bead pellet was resuspended in 180 μL of ASB. Next, to a 384 white plate, 30 μL of the RGS17 protein:bead: compound samples either washed or unwashed were added to each well in triplicate. Finally, 15 μL of the Gαo protein:bead sample was added to each well. The plate was incubated at room temperature, in the dark, for 1.25 hours and read on a Synergy2 plate reader (Biotek, Wisnooski, Vt.) with a sensitivity setting of 200, excitation at 680 nm, and emission read at 570 nm. All data was analyzed with Graphpad Prism 6.0. All data was compared to DMSO controls and corrected for possible bead loss due to washing steps.

RGS4 = RGS4 (Homo sapiens, UniProt P49798); assay: Selectivity versus RGS4; type: biochemical
Procedure: Characterization of UI-5, UI-1590 and UI-1956 to determine mechanism of action focused initially on the determination of the potential irreversible modification of the RGS protein by the compounds. […] These compounds were tested for selectivity versus RGS4 which was chosen as a model protein due to its high level of sensitivity to thiol modification (18).

RGS17 [3] = biological target: T1, RGS17; assay: Isothermal titration calorimetry (ITC); type: binding; conditions: for Gibbs free energy of binding / binding enthalpy ΔH / entropic component TΔS / Kd: ITC; for Kd: 25 C, read-out: dissociation constant (Kd)
Procedure: ITC was used to determine the binding properties of the lead compounds in solution by determining the dissociation constant (Kd) and stoichiometry (n) of the interaction between RGS17 and the inhibitor compounds.
RGS17 was concentrated in ITC sample buffer (50 mM HEPES pH 7.5, 100 mM NaCl and 1 mM beta-mercaptoethanol) at 50 μM. […] DMSO concentration in both compound and RGS17 sample was 1%, to account for any DMSO effects. Total injections for UI-1956 were set to 5 μL with a duration time of 10 secs and spacing of 240 secs and for UI-5 were set to 12 μL with a duration time of 24 secs and spacing of 240 secs. The total amount of injections for UI-1956 and UI-5 were, 32 and 23 respectively. All experiments were conducted on a GE MicroCal VP-ITC System (General Electric; Piscataway, N.J.) at 25 C. Heats of dilution were determined by averaging the heat evolved by the last five injections and subtracted from the raw data. The values for affinity, stoichiometry and change in enthalpy were then determined using the ORIGIN software provided by the manufacturer.

[4] = Solubility in aqueous ITC buffer
[5] = biological target: T3, RGS17-accelerated Gαo GTPase activity (Homo sapiens, UniProt Q9UGC6); assay: Malachite green steady-state GTPase assay (RGS17 GAP activity); type: biochemical
T3 construct: This is the same RGS17 construct used in the high throughput screening campaign that is fully active despite the N-terminal truncation; made in house
T3 sequence (Q9UGC6 72-206 limits assumed): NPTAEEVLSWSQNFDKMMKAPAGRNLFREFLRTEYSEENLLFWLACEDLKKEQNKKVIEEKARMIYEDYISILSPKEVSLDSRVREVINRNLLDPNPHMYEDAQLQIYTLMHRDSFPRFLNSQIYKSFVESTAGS
Procedure: Next, the ability of the compounds to inhibit the “GAP” activity of RGS17 was examined. The compounds were tested using a previously described malachite green assay (18), which allows for the detection of free phosphate liberated during the enzymatic cleavage of GTP to GDP by G alpha subunits.
First, stock solutions of each of the 3 components of the developing solution were prepared according to Monroy et al (18). In brief, Compounds were seeded using a half-log dilution with the highest final concentration of compound at 100 μM down to 1 nM. […] A 4×GTP at 1.2 mM diluted in MGB, was used, with a final concentration of 300 μM. To terminate the reaction, 10 μL of a Developing Solution (DS) was 50:12.5:1 (malachite:molybdate:Tween-20) was added to each well using a Microlab Star liquid handling robot (Hamilton Robotics; Reno, Nev.), this achieved a final ratio 4:1 (sample:developing solution) absorbance was read at 642 nm.

[6] = malachite green, n=3, read-out: IC50 for inhibition of RGS17 GAP activity

RGS4, sequence (P49798 whole entry, species assumed): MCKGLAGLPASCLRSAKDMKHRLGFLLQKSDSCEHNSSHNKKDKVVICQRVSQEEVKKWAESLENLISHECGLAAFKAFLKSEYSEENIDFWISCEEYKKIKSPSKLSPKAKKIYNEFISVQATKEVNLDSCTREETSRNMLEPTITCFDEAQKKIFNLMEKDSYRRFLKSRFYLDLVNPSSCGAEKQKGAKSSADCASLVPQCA

| Structure (SMILES) | covalent adducts on RGS17 (RGS17 [1]) | reversibility of inhibition after washing [2] | inhibition of RGS4 (RGS4) | selectivity RGS17 versus RGS4 (RGS4) | dissociation constants as determined by isothermal titration calorimetry (summary) (RGS17 [3]) | Gibbs free energy of binding (RGS17 [3]) [kcal/mol] | binding enthalpy ΔH (RGS17 [3]) [kcal/mol] | entropic component TΔS (RGS17 [3]) [kcal/mol] | Kd (RGS17 [3]) [µM] | solubility at the high concentration needed for ITC [4] | IC50 [5, 6] [µM] | IC50 [5] [µM] |
| --- | --- | --- | --- | --- | --- | --- | --- | --- | --- | --- | --- | --- |
| C[n+]1cc2c3c(ccc2c2ccc4cc5c(cc4c21)OCO5)OCO3 [UI-5] | did not form adducts | reversible | inhibited both RGS-4 and RGS-17 | more selective for RGS17 | low μM to nM | -8.168 | -0.148 | 8.0202 | 1.02 | soluble in the aqueous buffer | 12 | – |
| CC1=C(O)C(=O)C=C2C1=CC=C1[C@@]2(C)CC[C@@]2(C)[C@@H]3C[C@](C)(C(=O)O)CC[C@]3(C)CC[C@]12C [UI-1590] | did not form adducts | reversible | inhibited both RGS-4 and RGS-17 | more selective for RGS17 | low μM to nM | – | – | – | – | not soluble at the high concentration required; also recorded: not amendable to ITC due to solubility issues | 6.36 | 6 |
| CC(C)=CCC[C@]1(C)C=Cc2c(O)c3c(c(CC=C(C)C)c2O1)O[C@]12C(=C[C@@H]4C[C@H]1C(C)(C)O[C@@]2(C/C=C(/C)C(=O)O)C4=O)C3=O [UI-1907] | – | reversible | – | – | – | – | – | – | – | – | – | – |
| O=c1c(-c2cc(O)c(O)c(O)c2)coc2cc(O)c(O)c(O)c12 [UI-1956, 5,6,7-trihydroxy-3-(3,4,5-trihydroxyphenyl)-4H-chromen-4-one] | did not form adducts | reversible | – | selective for RGS17 | low μM to nM | -8.389 | -2.158 | 6.2313 | 0.714 | soluble in the aqueous buffer | 35 | – |
